Common to all, as to assay: NCI 60 cell line screen
Common to all, as to assay type: cell-based, human

Test [1] concerns EKVX. As to conditions: EKVX (Non-Small Cell Lung Cancer).
The test system of test [2] is U251. Conditions: U251 (CNS Cancer).
Test [3] has as its system OVCAR-5. Conditions: OVCAR-5 (Ovarian Cancer); one-dose 10 µM.

Here are results for one molecule from publication PMC5344255, “Design, Synthesis and Biochemical Evaluation of Novel Selective Estrogen Receptor Ligand Conjugates Incorporating an Endoxifen-Combretastatin Hybrid Scaffold” (Biomedicines, 2016).

Broadly, the GI50 is the concentration that inhibits growth by half. Read a low GI50 as more potent growth inhibition.

Structures are written as SMILES. “And” between values parts separate entries of the source, which are not always exact repeats. Identical values can stand only once.

Turning to `CCC(=C(c1ccc(O)cc1)c1ccc(OCCN(C)C(=O)/C(=C/c2ccc(OC)c(O)c2)c2cc(OC)c(OC)c(OC)c2)cc1)c1ccc(O)cc1` (mixture of isomers) [Compound 28, (E)-N-(2-{4-[(E/Z)-1,2-Bis-(4-hydroxyphenyl)but-1-enyl]-phenoxy}ethyl)-3-(3-hydroxy-4-methoxyphenyl)-N-methyl-2-(3,4,5-trimethoxyphenyl)acrylamide], the “GI% (10^−5 M)” value in test [1] (one-dose 10 µM) was 85.11%; in test [2] (one-dose 10 µM) it was 93% and 93.37%; in test [3], 3.21%. The GI50 in test [1] (Homo sapiens, five-dose screen) stood at 2010 nM; in test [2] (Homo sapiens, U-251, five-dose screen), 1740 nM.
